From patent publication US10189795B2, “Aryl amine substituted quinoxaline used as anticancer drugs” (priority 2014, dated 2019) come the findings set out here.

Data set [1] has as its system PLC5 xenograft tumor. Put plainly: PLC5 xenograft tumor growth in nude mice. It is filed as in vivo. Here is the method: Male NCr athymic nude mice (5-7 weeks of age) were obtained from the National Laboratory Animal Center (Taipei, Taiwan). All experimental procedures using these mice were performed in accordance with protocols approved by the Institutional Laboratory Animal Care and Use Committee of National Taiwan University. Each mouse was inoculated subcutaneously in the dorsal flank with 1×10^6 PLC5 or A549 cells suspended in serum-free medium containing 50% Matrigel (BD Biosciences, Bedford, Mass., USA). When tumors reached 100-150 mm^3, mice were treated with sorafenib, the erlotinib derivatives of the present invention, or vehicle (control) at 10 mg/kg/day daily by oral gavage for 4 weeks.
The present invention used a PLC5 xenograft mouse model to assess the effects of TD-52 in vivo. The present choose sorafenib as one of the comparative treatment arms. Tumor-bearing mice were administered sorafenib (10 mg/kg), TD-52 (10 mg/kg) or DMSO (vehicle, as control). […] The present invention further examined the xenografted tumors taken from mice receiving TD-52 and vehicle to confirm the molecular events in the tumor tissue. […] When PP2A activity was enhanced by TD-52, Akt was dephosphorylated, promoting HCC cell apoptosis.

A short description of data set [2]: BA (%), Table 5. Particulars: in vivo.
Data set [3] deals with H2170. Put plainly: cell viability of H2170 cells, 1 and 10 uM. The class given is cell-based. The settings on record: Homo sapiens, NCI-H2170.
In data set [4] the test system is PLC5. Nature of the data set: MTT cell viability, PLC5. The class given is cell-based. The settings on record: 48 h. On the procedure: (§1) The Sk-Hep1, PLC/PRF/5 (PLC) and Hep3B cell lines were obtained from American Type Culture Collection (ATCC; Manassas, Va., USA). The Huh-7 HCC cell line was obtained from the Health Science Research Resources Bank (HSRRB; Osaka, Japan; JCRB0403). Cells were maintained in DMEM supplemented with 10% FBS in a 37° C. humidified incubator in an atmosphere of 5% CO^2 in air. Other cell lines, including non-small cell lung cancer cells e.g. H358, H460 and A549 and human squamous cell carcinoma cells e.g. NCI-1703, H2170, H520, SW900 and NCI—H226 all obtained from American Type Culture Collection (Manassas, Va.) were also provided for the assays describes below.
(§2) The present invention compared the antitumor activities of an erlotinib derivative of the present invention, TD-52, and erlotinib on HCC cells. The present invention used MTT assay to evaluate cell viability after exposure to TD-52 or erlotinib for 48 h. […] To further evaluate the cell apoptosis induced by the treatments, all four cell lines were treated with TD-52 and erlotinib at the indicated concentration for 24 h and the percentages of sub-G1 cells were determined by flow cytometry (FIG. 1B).

The test system of data set [5] is SW900. Put plainly: cell viability of SW900 cells, 1 and 10 uM. It is filed as cell-based. Particulars: Homo sapiens.
Data set [6] concerns NCI-1703. Put plainly: cell viability of NCI-1703 cells, 1 and 10 uM of each erlotinib derivative, and IC50. It is filed as cell-based. Particulars: Homo sapiens.
Data set [7] deals with Hep3B. Nature of the data set: MTT cell viability, Hep3B. The class given is cell-based. The settings on record: Homo sapiens, 48 h. On the procedure:
as §1, §2

Data set [8] deals with CIP2A, p-Akt. Put plainly: western blot of CIP2A and p-Akt in HCC cells. It is filed as cell-based. Particulars: dose- and time-dependent. Here is the method:
Bar, mean; error bars, S.D. (n=3). […] Bar, mean; error bars, S.D. (n=3). […] Bar, mean; error bars, S.D. (n=3). […] Bar, mean; error bars, S.D. (n=3). […] Bar, mean; error bars, S.D. (n=3)
Cells were treated with […] for a time period. Cell lysates were analyzed by western blot analysis.
The present invention next investigated the molecular mechanism associated with TD-52, with particular focus on the cancerous inhibitor of protein phosphatase 2A (CIP2A)-protein phosphatase 2A (PP2A)-p-Akt signaling pathway. […] Furthermore, PP2A activity was enhanced after HCC cells treated with […]-52 for 24 hr (FIG. 2C), while the expression level of PP2A-related subunits, PP2A-A, PP2A-B5 and PP2A-C subunits, were not affected.
(A western blot detects proteins with antibodies after separation by electrophoresis.)

For data set [9], the system named is H358. Nature of the data set: cell viability of H358 cells, 1 and 10 uM. The class given is cell-based. Particulars: Homo sapiens, NCI-H358.
Data set [10] relates to PP2A. Nature of the data set: PP2A phosphatase activity (malachite green-phosphate assay in cell lysate). The class given is cell-based.

Turning to `C#Cc1cccc(Nc2nc3ccccc3nc2Nc2cccc(C#C)c2)c1` [TD52, N^2,N^3-bis(3-ethynylphenyl)quinoxaline-2,3-diamine], in data set [1] (10 mg/kg each, P<0.05), the “inhibition of in vivo tumor growth in comparison with sorafenib” value is listed as “more potent inhibition of in vivo tumor growth”. The tumor size entry in data set [1] (10 mg/kg, oral gavage daily, 4 weeks, vs control arm) is on record as “smaller than those of the control arm”. In data set [1] (TD-52 vs vehicle), the “PP2A activity in xenograft tumor samples” value is given as “enhanced PP2A activity”. For the same compound, in [2], the “BA (%)” value is reported as 87%. In addition, the viability – broadly, a read-out of living cells in per cent, often relative to untreated cells – at 1 µM in data set [3] (1 uM) amounted to 100 ± 3.21%; in data set [5] (1 uM) it was 107 ± 13.1%; in data set [6] (1 uM), 84.7 ± 2.5%; in data set [9] (1 uM), 99.8 ± 3.8%. The viability at 10 µM in data set [3] (10 uM) turned out to be 7.84 ± 9.49%; in [5] (10 uM) it was 77.9 ± 11.3%; in data set [6] (10 uM) it was 10.1 ± 0.1%; in [9] (10 uM), 11.2 ± 0.7%. Besides, the IC50 – broadly, the concentration at which inhibition is half-maximal – in data set [4] turned out to be 0.8 µM; in data set [6] (cell viability), 3.8 µM; in data set [7], 0.9 µM. Moreover, in data set [8], the “protein expression of CIP2A and p-Akt” value was “downregulated”. The “minimal concentration for PP2A activation” value in data set [10] was in the range of 100 to 200 nM. In addition, in data set [10] (1 μL (printed) TD-52, 24 hr), the “PP2A activity in HCC cells” value was “enhanced”.
